According to patent publication US8993595B2, “Macrocyclic serine protease inhibitors” (priority 2009, dated 2015):
pEC50, pIC50: −log10 of the molar value.

Columns and labels:
in vitro = assay type: cell-based; settings: human; GS4.1 cells, Cell Titer 96 AQueous One Solution
Description: For cytotoxicity evaluation, GS4.1 cells were treated with compounds as described above and cellular viability was monitored using the Cell Titer 96 AQueous One Solution Cell Proliferation Assay (Promega). CC50 values were determined from the % cytotoxicity versus concentration data with Tecan Magellan software as described above.

HCV NS3-NS4A protease = target: T1, HCV NS3-NS4A protease (Hepatitis C virus genotype 1a, UniProt P27958); assay: HCV Protease Assay (SensoLyte 620 HCV Protease Assay kit); assay type: biochemical; settings: 1.2 nM HCV NS3-NS4A protease, 60 min, room temperature
T1 construct: HCV NS3-NS4A protease, which was obtained according to Taremi et al; made in house
Description: Measurement of the inhibitory effect of compounds on HCV protease activity was performed with the SensoLyte™ 620 HCV Protease Assay kit from AnaSpec, Inc. (San Jose, Calif.) under conditions described by the supplier using 1.2 nM HCV NS3-NS4A protease, which was obtained according to Taremi et al. (Protein Science, 1998, 7, 2143-2149). The compounds were tested at a variety of concentrations in assay buffer containing a final DMSO concentration of 5%. Reactions were allowed to proceed for 60 min at room temperature and fluorescence measurements were recorded with a Tecan Infinity Spectrofluorimeter. The IC50 values were determined from the percent inhibition versus concentration data using a sigmoidal non-linear regression analysis based on four parameters with Tecan Magellan software.

[1] = system: HCV Con1 subgenomic replicon in Huh-7 cells (GS4.1 cells); assay: HCV Replicon Assay (NS4A ELISA); assay type: cell-based; settings: Hepatitis C virus, 72 hr
Description: Huh-7 cells containing HCV Con1 subgenomic replicon (GS4.1 cells) were grown in Dulbecco's Modified Eagle Medium (DMEM) supplemented with 10% fetal bovine serum (FBS), 2 mM L-glutamine, 110 mg/L sodium pyruvate, 1× non-essential amino acids, 100 U/mL penicillin-streptomycin, and 0.5 mg/mL G418 (Invitrogen). For dose-response testing, the cells were seeded in 96-well plates at 7.5×10^3 cells/well in a volume of 50 μL, and incubated at 37° C./5% CO2. Three hours after plating, 50 μL of ten 2-fold serial dilutions of compounds (highest concentration, 75 μM) were added, and cell cultures were incubated at 37° C./5% CO2 in the presence of 0.5% DMSO. Alternatively, compounds were tested at a single concentration of 15 μM. In all cases, Huh-7 cells lacking the HCV replicon served as negative control. The cells were incubated in the presence of compounds for 72 hr after which they were monitored for expression of the NS4A protein by enzyme-linked immunosorbent assay (ELISA). For this, the plates were then fixed for 1 min with acetone/methanol (1:1, v/v), washed twice with phosphate-buffered saline (PBS), 0.1% Tween 20, blocked for 1 hr at room temperature with TNE buffer containing 10% FBS and then incubated for 2 hr at 37° C. with the anti-NS4A mouse monoclonal antibody A-236 (ViroGen) diluted in the same buffer. After washing three times with PBS, 0.1% Tween 20, the cells were incubated 1 hr at 37° C. with anti-mouse immunoglobulin G-peroxidase conjugate in TNE, 10% FBS. After washing as described above, the reaction was developed with O-phenylenediamine (Zymed). The reaction was stopped after 30 min with 2 N H2SO4, and absorbance was read at 492 nm using Sunrise Tecan spectrophotometer. EC50 values were determined from the % inhibition versus concentration data using a sigmoidal non-linear regression analysis based on four parameters with Tecan Magellan software.

T1 sequence (P27958 1027-1208): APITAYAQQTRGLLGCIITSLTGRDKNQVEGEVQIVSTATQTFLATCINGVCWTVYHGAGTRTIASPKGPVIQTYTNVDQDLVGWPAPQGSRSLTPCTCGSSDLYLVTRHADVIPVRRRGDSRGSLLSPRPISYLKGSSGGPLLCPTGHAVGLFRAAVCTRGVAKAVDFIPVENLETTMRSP

SMILES: COc1ccc2c(O[C@H]3CCN4C(=O)N(C)CCCC/C=C\[C@@H]5C[C@@]5(C(=O)NS(=O)(=O)C5(C)CC5)NC(=O)[C@@H]4C3)nc(-c3nc(C(F)(F)F)cs3)nc2c1C [Compound 57, 1-methyl-cyclopropanesulfonic acid {(Z)-(1S,4R,6S,18S)-18-[7-methoxy-8-methyl-2-(4-trifluoromethyl-thiazol-2-yl)quinazolin-4-yloxy]-13-methyl-2,14-dioxo-3,13,15-triaza-tricyclo[13.4.0.0*4,6*]nonadec-7-ene-4-carbonyl}-amide]
- CC50 (in vitro): 10 to 75 µM
- pIC50 (HCV NS3-NS4A protease): > 6.00
- pEC50 [1]: > 6.00

SMILES: COc1ccc2c(O[C@H]3CCN4C(=O)CCCCC/C=C\[C@@H]5C[C@@]5(C(=O)NS(=O)(=O)C5CC5)NC(=O)[C@@H]4C3)cc(-c3nc(C(F)(F)F)cs3)nc2c1C [Compound 58]
- CC50 (in vitro): 10 to 75 µM
- pIC50 (HCV NS3-NS4A protease): > 6.00
- pEC50 [1]: > 6.00

SMILES: COc1ccc2c(O[C@H]3CCN4C(=O)N(C)CCCC/C=C\[C@@H]5C[C@@]5(C(=O)NS(=O)(=O)C5(C)CC5)NC(=O)[C@@H]4C3)nc(-c3ccc(F)cc3)nc2c1C [Compound 56]
- CC50 (in vitro): > 75 µM
- pIC50 (HCV NS3-NS4A protease): > 6.00
- pEC50 [1]: > 6.00

SMILES: COc1ccc2c(O[C@H]3CCN4C(=O)N(C)CCCC/C=C\[C@@H]5C[C@@]5(C(=O)NS(=O)(=O)C5CC5)NC(=O)[C@@H]4C3)cc(-c3nc(C(F)(F)F)cs3)nc2c1C [Compound 51, 1-cyclopropanesulfonic acid{(Z)-(1S,4R,6S,18S)-18-[7-methoxy-8-methyl-2-(4-trifluoromethyl-thiazol-2-yl)-quinolin-4-yloxy]-13-methyl-2,14-dioxo-3,13,15-triaza-tricyclo[13.4.0.0*4,6*]nonadec-7-ene-4-carbonyl}amide]
- CC50 (in vitro): 10 to 75 µM
- pIC50 (HCV NS3-NS4A protease): > 6.00
- pEC50 [1]: > 6.00

SMILES: C#Cc1csc(-c2cc(O[C@H]3CCN4C(=O)N(C)CCCC/C=C\[C@@H]5C[C@@]5(C(=O)NS(=O)(=O)C5(C)CC5)NC(=O)[C@@H]4C3)c3ccc(OC)c(C)c3n2)n1 [Compound 55, 1-methyl-cycloprpoanesulfonic acid{(Z)-(1S,4R,6S,18S)-18-[2-(4-ethynyl-thiazol-2-yl)-7-methoxy-8-methyl-quinolin-4-yl-oxy]-13-methyl-2,14-dioxo-3,13,15-triaza-tricyclo[13.4.0.0*4,6*]nonadec-7-ene-4-carbonyl}-amide]
- CC50 (in vitro): 10 to 75 µM
- pIC50 (HCV NS3-NS4A protease): > 6.00
- pEC50 [1]: > 6.00

SMILES: COc1ccc2c(O[C@H]3CCN4C(=O)N(C)CCOC/C=C\[C@@H]5C[C@@]5(C(=O)NS(=O)(=O)C5(C)CC5)NC(=O)[C@@H]4C3)cc(-c3nc(C(F)(F)F)cs3)nc2c1C [Compound 54]
- CC50 (in vitro): > 75 µM
- pIC50 (HCV NS3-NS4A protease): > 6.00
- pEC50 [1]: 5.00 to 6.00
